Data set [1] in a line: Ligand reduction potential. Type of data set: physicochemical. Conditions: vs n.h.e., 298K, 0.1 M NBu4ClO4, MeCN. From the text:
The quenching process with urate is believed to involve an intermediate exciplex, involving a short-lived bonding π-π interaction. This is disfavoured as the sensitising chromophore becomes less susceptible to accept electron density and is reflected in the ligand reduction potential. For compound (7), this was −1.52 V (vs n.h.e., 298K, 0.1 M NBu4ClO4, MeCN), which compares to −1.07 V for the cyclohexyl tetraazatriphenylene and −1.60 V for the 1-aza-xanthone (2). Terbium complexes of L^1 and L^2 resisted urate and ascorbate quenching more effectively than the comparator complexes.

A short description of data set [2]: Triplet energy measured on Gd analogues in frozen glass (77K). The data set is classed as physicochemical. The settings on record: Gd analogues in frozen glass of Et2O/isopentane/ethanol or EtOH/MeOH (2:1).
Data set [3] is described as follows: Absorption spectrum of Tb(III) complexes. The settings on record: for γmax: absorption, Tb(III) complexes; for ε: molar extinction coefficient. Type of data set: physicochemical. The source says:
(§1) Absorption, emission and triplet energy data for these complexes are collated in Table 1.
The absorption spectrum of [TbL^1]

The nature of data set [4]: Terbium emission lifetime / decay rate constants in H2O and D2O. The data set is classed as physicochemical. Conditions: lifetime ±10%.
Excerpt: as §1

Data set [5] has as its system Chinese hamster ovarian cells. The settings on record: observed previously under the same standard conditions; cited from earlier work.
The nature of data set [6]: Stern-Volmer excited state quenching by urate. Conditions: pH 7.4, 0.1 M HEPES, 298K. Type of data set: physicochemical. From the text:
(§2) A key issue in assessing the utility of such luminescent complexes for intracellular application is their sensitivity towards quenching by endogenous electron-rich species (e.g. urate/ascorbate) either when the complexes are free or protein bound. Accordingly, the Stern-Volmer quenching constants (KSv^−1/mM) defining their relative sensitivity to quenching can be assessed comparatively, (Table 2).

A short description of data set [7]: Stern-Volmer excited state quenching by ascorbate. Type of data set: physicochemical. Conditions: pH 7.4, 0.1 M HEPES, 298K.
Excerpt: as §2

A short description of data set [8]: Emission quantum yield. Conditions: quantum yields ±15%. The data set is classed as physicochemical.
Excerpt: as §1

In data set [9] the target is human serum albumin (Homo sapiens, UniProt P02768). Description: Emission lifetime in the presence of human serum albumin, urate and ascorbate. The settings on record: 0.4 mM human serum albumin, 0.1 mM sodium urate, 0.2 mM ascorbate, pH 7.4, 298K, 0.1M HEPES. How it is done:
In the presence of 0.4 mM human serum albumin, 0.1 mM sodium urate and 0.2 mM ascorbate, (pH 7.4, 298K, 0.1M HEPES), the emission lifetime of [TbL^2]^3+ was within 10% of its value in water, i.e. 2.1 ms, compared to 0.7 ms and 0.5 ms for [TbL^6]^3+ and [TbL^4]^3+ respectively under the same conditions.

The nature of data set [10]: Stern-Volmer excited state quenching by iodide. The data set is classed as physicochemical. The settings on record: pH 7.4, 0.1 M HEPES, 298K.
Excerpt: as §2

The mark [11] stands for this setting: first of two columns headed kD2O^Tb.
[12] abbreviates: second of two columns headed kD2O^Tb.

The source of these data is patent US20100204467A1, “LANTHANIDE (III) ION COMPLEXING COMPOUNDS, LUMINESCENT LANTHANIDE (III) ION COMPLEXES AND USE THEREOF AS FLUORESCENT LABELS” (CIS BIO INTERNATIONAL, priority 2007, published 2010).

human serum albumin, sequence (P02768 25-609): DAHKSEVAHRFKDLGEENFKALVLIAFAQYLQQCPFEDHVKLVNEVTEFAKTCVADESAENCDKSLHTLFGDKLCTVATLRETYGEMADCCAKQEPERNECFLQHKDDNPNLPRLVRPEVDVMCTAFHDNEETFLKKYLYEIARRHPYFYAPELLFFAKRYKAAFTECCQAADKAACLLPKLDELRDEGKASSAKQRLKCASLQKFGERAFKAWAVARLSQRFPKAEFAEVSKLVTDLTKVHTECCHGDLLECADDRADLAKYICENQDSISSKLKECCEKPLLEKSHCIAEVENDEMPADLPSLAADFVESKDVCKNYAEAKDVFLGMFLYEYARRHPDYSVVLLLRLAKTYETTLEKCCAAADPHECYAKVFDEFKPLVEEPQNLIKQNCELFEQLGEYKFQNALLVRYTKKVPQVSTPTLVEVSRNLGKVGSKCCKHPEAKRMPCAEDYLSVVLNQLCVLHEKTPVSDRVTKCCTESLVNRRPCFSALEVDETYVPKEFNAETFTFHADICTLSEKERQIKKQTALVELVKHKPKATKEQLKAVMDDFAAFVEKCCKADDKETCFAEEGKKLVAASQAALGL

In data set [1], `CC(C)(C)c1ccc2oc3cccnc3c(=O)c2c1` [Compound 2, 7-Tert-Butyl-1-Azaxanthone] registered a ligand reduction potential of −1.60 V.

Molecule `Cc1ccn(-c2ccc3c(=O)c4cc(C(C)(C)C)ccc4oc3n2)n1` [Compound 7, 7-Tert-Butyl-2-(N-3′-Methylpyrazole)-1-Azaxanthone] had a ligand reduction potential in data set [1] of −1.52 V.

As to `CC(NC(=O)CN1CCN(CC(=O)NC(C)c2ccccc2)CCN(Cc2ccc3c(=O)c4cc(C(C)(C)C)ccc4oc3n2)CCN(CC(=O)NC(C)c2ccccc2)CC1)c1ccccc1.[Tb+3]` (stereo not shown) [[TbL^4]^3+], the “ET^Gd” value in data set [2] is 24,800 cm^−1. In data set [3], the γmax came out at 335 nm and the ε is listed as 6,900 M^−1 cm^−1. For the same molecule, the “kD2O^Tb” value in data set [4] (setting [11]) is given as 0.61 (ms)^−1. For the same molecule, the “kD2O^Tb” value in data set [4] (setting [12]) is recorded as 0.35 (ms)^−1. In [5], the nuclear localisation entry is recorded as “tendency for nuclear localisation”. Besides, the “Ksv^−1 (urate)” value in data set [6] was found to be 0.04 mM. Also, in data set [7], the “Ksv^−1 ascorbate” value is on record as 0.37 mM. This molecule also came in with a nem^Tb (H2O) in [8] of 37%. The emission lifetime in data set [9] stood at 0.5 ms. Besides, the “Ksv^−1 (I^−)” value in [10] worked out at 9.2 mM.

For the molecule `CC(NC(=O)CN1CCN(CC(=O)NC(C)c2ccccc2)CCN(Cc2ccc3c(n2)c2ncccc2c2nc4c(nc32)CCCC4)CCN(CC(=O)NC(C)c2ccccc2)CC1)c1ccccc1.[Tb+3]` (stereo not shown) [[TbL^6]^3+], the “ET^Gd” value in [2] is recorded as 23,800 cm^−1. The molecule also gave a γmax in [3] of 348 nm. Further, the ε in [3] is given as 8,300 M^−1 cm^−1. The “kD2O^Tb” value in data set [4] (setting [11]) is 0.64 (ms)^−1; in data set [4] (setting [12]), 0.58 (ms)^−1. The nuclear localisation entry in data set [5] is “tendency for nuclear localisation”. Further, the nem^Tb (H2O) in [8] is 40%. In addition, the emission lifetime in data set [9] is 0.7 ms.

In data set [1], “cyclohexyl tetraazatriphenylene [reference compound]” displayed a ligand reduction potential of −1.07 V.
